Measurements: article PMC10650955, “α-Aminophosphonate inhibitors of metallo-β-lactamases NDM-1 and VIM-2” (RSC Medicinal Chemistry, 2023)
Counter-ions that a name gives are not always drawn.

Columns and labels:
NDM-1 = biological target: T1, NDM-1 (Klebsiella pneumoniae, UniProt C7C422); test: Dose rate inhibition studies for IC50 determination, NDM-1 enzymatic assay; type: biochemical; conditions: Enzyme IC50 NDM-1, 10 nM NDM-1, 100 μM ZnCl2, imipenem substrate, inhibitor 0-800 μM, 3 parallel measurements; N.I. = no enzyme inhibitory activity observed
T1 construct: made in house
T1 sequence (C7C422 29-270 limits assumed): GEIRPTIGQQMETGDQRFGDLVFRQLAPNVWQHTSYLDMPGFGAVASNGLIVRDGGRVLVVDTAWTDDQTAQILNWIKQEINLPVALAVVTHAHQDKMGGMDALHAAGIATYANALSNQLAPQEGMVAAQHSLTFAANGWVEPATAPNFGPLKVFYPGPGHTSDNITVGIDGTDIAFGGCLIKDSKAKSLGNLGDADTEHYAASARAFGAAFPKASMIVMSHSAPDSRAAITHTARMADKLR
Procedure: (§1) The […] synthesized compounds 5a–l were tested for their inhibitory activities against NDM-1, VIM-2 (Table 1), and GIM-1 in an in vitro enzymatic assay (ESI ^†).[41] The inhibitory activity was measured using enzyme concentrations of 0.1 nM VIM-2, 10 nM NDM-1 or 1 nM GIM-1, with an excess Zn(II) (100 μM, see Experimental methods), with inhibitor compounds with concentrations from 0 to 800 μM. Each data point was measured in triplicates. […] This is in line with previous reports.[42,43]
(§2) A 100 μl solution with buffer (50 mM HEPES (pH 7.2), 100 μM ZnCl2, 2.5% DMSO), purified enzyme (0.1 nM VIM-2, 10 nM NDM-1 or 1 nM GIM-1) and 800–0 μM inhibitor was incubated in a 96 well plate at 25 °C for 5 min. In addition, the enzyme buffer contained 400 μg ml^−1 bovine serum albumin (BSA) to prevent protein unfolding and loss of activity due to low concentrations.[67,68] 100 μM of the reporter substrate nitrocefin (VIM-2, GIM-1) or imipenem (NDM-1) was added to the enzyme–inhibitor solution and the increase in absorbance at 482 nm (nitrocefin) or 300 nm (imipenem) was recorded on a Spectramax M4 spectrophotometer (Molecular Devices). Each data point was performed in triplicates and the initial velocity for each inhibitor concentration was analyzed by a log [inhibitor] vs. response curve fitting to calculate IC50 in GraphPad Prism 9.2 software.

VIM-2 = biological target: T2, VIM-2 (Escherichia coli, UniProt Q5U7L7); test: Dose rate inhibition studies for IC50 determination, VIM-2 enzymatic assay; type: biochemical; conditions: inhibitor 0-800 μM, 3 parallel measurements, N.I. = no enzyme inhibitory activity observed
T2 construct: made in house
Procedure: as §1, §2

15N-labelled NDM-1 = biological target: T3, 15N-labelled NDM-1 (Klebsiella pneumoniae, UniProt C7C422); test: 1H,15N HSQC NMR chemical shift perturbation titration, NDM-1; type: binding
T3 construct: made in house
T3 sequence (C7C422 29-270 limits assumed): as above
Procedure: (§3) Solution NMR spectroscopy is a powerful tool to assess protein–ligand interactions under close to physiological conditions.[47] We, therefore, performed NMR chemical shift perturbation (CSP, for details, see section S8, ESI ^†) experiments to identify the amino acid residues of NDM-1 and VIM-2 that are involved in inhibitor binding, making use of the previously published protein assignments.[48,49] Titrations were conducted using ^15N-labelled proteins with 0, 0.5, 1, 2, 4, 8, and 16 equiv. of 5 inhibitors for NDM-1 and of 7 inhibitors for VIM-2.
(§4) For the titrations, ^15N-labelled NDM-1 and ^15N-labelled VIM-2 (250 μM), and titrated ligands (0.5 equiv. in 1 μL) were prepared in the same buffer as the protein (20 mM KPO4, 0.1 mM ZnCl2, pH 7.0 with 10% D2O and 2.5% DMSO-d6). ^1H,^15N HSQC spectra were acquired with 128 × 1024 complex points (F1 × F2) and spectral width of 9090 × 2740 Hz on ^15N-labeled NDM-1/VIM-2 and with every titration step up to 1 : 16 ratio between protein : ligand (0, 0.5, 1, 2, 4, 8, and 16 equiv. of ligand). All experiments were recorded on a Bruker 600 MHz spectrometer at 310 K equipped with a 5 mm TCI cryogenic probe. The NMR data were processed on the MestReNova software with the Mnova Binding plugin. The weighted average chemical shift perturbations (CSP) for the backbone amides were calculated from the observed chemical shift differences in the proton and nitrogen dimensions using the equation (chemical shift scaling factors: FH = 1, FN = 0.156) CSP = Δδ1H,15N = [drawing 13] .
(§5) 7. Chemical shift perturbation histograms
(§6) Chemical shift perturbation was calculated according equation (1) 2
(§7) CSP = Δδ(1H,15N) = √(Δδ1H2 + (1⁄R × Δδ15N2) Rscale = 6.5 (1)
(§8) Where Δδ1H is the chemical shift change for proton dimension, Δδ15N is the chemical shift change for nitrogen dimension, Rscale is a
(§9) The chemical shift perturbations (CSP) were classified as significant (SSP) when the observed Δδ(1H,15N) was greater than the population
(§10) mean plus the standard deviation (µ+1σ) – solid line; (µ+2σ) – dashed line, and (µ+3σ) – dashed line.
(§11) Further on, Kd was calculated according: 3
(§12) ([P]+[L]+Kd)− √([P]+[L]+Kd)2−4[P][L]
(§13) ΔδmaxΔδobs = Δδmax 2[P] (2)
(§14) Where Kd is the dissociation constant, [P] and [L] are protein and ligand concentrations, respectively. Δδmax were estimated in
(§15) MestReNova by extrapolation of the obser ved chemical shift differences Δδobs.

15N-labelled VIM-2 = biological target: T4, 15N-labelled VIM-2 (Escherichia coli, UniProt Q5U7L7); test: 1H,15N HSQC NMR chemical shift perturbation titration, VIM-2; type: binding; conditions: VIM-2 Kd, 0-16 equiv. ligand, pH 7.0, 310 K
T4 construct: made in house
Procedure: as §3, §4, §5, §6, §7, §8, §9, §10, §11, §12, §13, §14, §15

[1] = Estimated binding constant (Kd), residue 119T, Table S5, per-residue fit, NDM-1 119T
[2] = Estimated binding constant (Kd), residue 124D, Table S5, per-residue fit, NDM-1 124D
[3] = Estimated binding constant (Kd), residue 127G, Table S5, per-residue fit, NDM-1 127G
[4] = Estimated binding constant (Kd), residue 159H, Table S5, per-residue fit, NDM-1 159H
[5] = Estimated binding constant (Kd), residue 160S, Table S5, per-residue fit, NDM-1 160S
[6] = Estimated binding constant (Kd), residue 188G, Table S5, per-residue fit, NDM-1 188G
[7] = Estimated binding constant (Kd), residue 191S, Table S5, per-residue fit, NDM-1 191S
[8] = Estimated binding constant (Kd), residue 194I, Table S5, per-residue fit, NDM-1 194I
[9] = Estimated binding constant (Kd), residue 197G, Table S5, per-residue fit, NDM-1 197G
[10] = Estimated binding constant (Kd), residue 205F, Table S5, per-residue fit, NDM-1 205F
[11] = Estimated binding constant (Kd), residue 211K, Table S5, per-residue fit, NDM-1 211K
[12] = Estimated binding constant (Kd), residue 214K, Table S5, per-residue fit, NDM-1 214K
[13] = Estimated binding constant (Kd), residue 217S, Table S5, per-residue fit, NDM-1 217S
[14] = Estimated binding constant (Kd), residue 228H, Table S5, per-residue fit, NDM-1 228H
[15] = Estimated binding constant (Kd), residue 229Y, Table S5, per-residue fit, NDM-1 229Y
[16] = Estimated binding constant (Kd), residue 230A, Table S5, per-residue fit, NDM-1 230A
[17] = Estimated binding constant (Kd), residue 248M, Table S5, per-residue fit, NDM-1 248M
[18] = Estimated binding constant (Kd), residue 251S, Table S5, per-residue fit, NDM-1 251S
[19] = Estimated binding constant (Kd), residue 252A, Table S5, per-residue fit, NDM-1 252A
[20] = Estimated binding constant (Kd), residue 254D, Table S5, per-residue fit, NDM-1 254D
[21] = Estimated binding constant (Kd), residue 255S, Table S5, per-residue fit, NDM-1 255S
[22] = NDM-1 Kd, NMR chemical shift perturbation, 0-16 equiv. ligand, pH 7.0, 310 K

SMILES	IC50 (NDM-1)	Kd (15N-labelled NDM-1; [1])	Kd (15N-labelled NDM-1; [2])	Kd (15N-labelled NDM-1; [3])	Kd (15N-labelled NDM-1; [4])	Kd (15N-labelled NDM-1; [5])	Kd (15N-labelled NDM-1; [6])	Kd (15N-labelled NDM-1; [7])	Kd (15N-labelled NDM-1; [8])	Kd (15N-labelled NDM-1; [9])	Kd (15N-labelled NDM-1; [10])	Kd (15N-labelled NDM-1; [11])	Kd (15N-labelled NDM-1; [12])	Kd (15N-labelled NDM-1; [13])	Kd (15N-labelled NDM-1; [14])	Kd (15N-labelled NDM-1; [15])	Kd (15N-labelled NDM-1; [16])	Kd (15N-labelled NDM-1; [17])	Kd (15N-labelled NDM-1; [18])	Kd (15N-labelled NDM-1; [19])	also measured
O=C(NC(C1CCCCN1)P(=O)(O)O)c1cccs1 (stereo not drawn) [Compound 5b-1, (Piperidin-2-yl(thiophene-2-carboxamido)methyl)phos-phonic acid hydrochloride]	230 ± 28 µM	18100 µM	3170 µM	8340 µM	21500 µM	8970 µM	3400 µM	850 µM	2930 µM	10400 µM	11000 µM	3490 µM	1360 µM	10500 µM	11000 µM	2240 µM	4330 µM	12900 µM	6070 µM	3480 µM	IC50 (VIM-2; Enzyme IC50 VIM-2, 0.1 nM VIM-2, 100 μM ZnCl2, nitrocefin substrate): 118 ± 60 µM; Kd (15N-labelled NDM-1; Estimated binding constant (Kd), residue 070F, Table S5, per-residue fit, NDM-1 070F): 2920 µM; Kd (15N-labelled NDM-1; Estimated binding constant (Kd), residue 091T, Table S5, per-residue fit, NDM-1 091T): 5760 µM; Kd (15N-labelled NDM-1; Estimated binding constant (Kd), residue 108E, Table S5, per-residue fit, NDM-1 108E): 6630 µM; Kd (15N-labelled NDM-1; Estimated binding constant (Kd), residue 149A, Table S5, per-residue fit, NDM-1 149A): 1710 µM; Kd (15N-labelled NDM-1; Estimated binding constant (Kd), residue 152E, Table S5, per-residue fit, NDM-1 152E): 3520 µM; Kd (15N-labelled NDM-1; Estimated binding constant (Kd), residue 232S, Table S5, per-residue fit, NDM-1 232S): 12100 µM; Kd (15N-labelled NDM-1; [20]): 9740 µM; Kd (15N-labelled NDM-1; [21]): 7370 µM; Kd (15N-labelled NDM-1; [22]): 2000 ± 100 µM; Kd (15N-labelled VIM-2): 400 ± 40 µM
O=C(Cc1cccs1)NC(C1CCCCN1)P(=O)(O)O (stereo not drawn) [Compound 5i-1, (Piperidin-2-yl(2-(thiophen-2-yl)acetamido)methyl)phos-phonic acid hydrochloride]	296 ± 87 µM	930 µM	3530 µM	8940 µM	2470 µM	250 µM	490 µM	120 µM	4990 µM	1270 µM	2300 µM	140 µM	570 µM	3060 µM	3080 µM	340 µM	180 µM	780 µM	1820 µM	480 µM	Enzyme IC50 VIM-2 (VIM-2; 0.1 nM VIM-2, 100 μM ZnCl2, nitrocefin substrate): N.I.; Kd (15N-labelled NDM-1; Estimated binding constant (Kd), residue 213S, Table S5, per-residue fit, NDM-1 213S): 390 µM; Kd (15N-labelled NDM-1; [20]): 7530 µM; Kd (15N-labelled NDM-1; [21]): 9910 µM; Kd (15N-labelled NDM-1; [22]): 500 ± 100 µM; Kd (15N-labelled VIM-2): 1500 ± 200 µM
